IC50 data for 24 compounds are collected here from patent US20100160335A1, “PYRIDAZINONE DERIVATIVE AND PDE INHIBITOR CONTAINING THE SAME AS ACTIVE INGREDIENT” (KYORIN PHARMACEUTICAL CO., LTD., priority 2007, published 2010).

For assay [1], the target named is T1, PDE3A catalytic domain (PDE3Acat) (Homo sapiens, UniProt Q14432).
T1 construct: made in house; host or cells: Sf9 insect cells (baculovirus, Bac-to-Bac / Gateway)
In words: Phosphodiesterase inhibitory activity, PDE3 ([3H]cAMP, recombinant enzyme). As to conditions: 30° C., 20 minutes, read-out: IC50(μmol/L) PDE3. The format is biochemical.

The next assay has as its target T2, PDE4Bcat (Homo sapiens, UniProt Q07343).
T2 construct: made in house; host or cells: Sf9 insect cells (baculovirus, Bac-to-Bac / Gateway)
Nature of the assay: Phosphodiesterase inhibitory activity, PDE4 ([3H]cAMP, recombinant enzyme). The assay is classed as biochemical. Conditions: 30° C., 20 minutes, read-out: IC50(μmol/L) PDE4.

Each structure is given as a SMILES string.

T1 sequence (Q14432 674-1093 limits assumed): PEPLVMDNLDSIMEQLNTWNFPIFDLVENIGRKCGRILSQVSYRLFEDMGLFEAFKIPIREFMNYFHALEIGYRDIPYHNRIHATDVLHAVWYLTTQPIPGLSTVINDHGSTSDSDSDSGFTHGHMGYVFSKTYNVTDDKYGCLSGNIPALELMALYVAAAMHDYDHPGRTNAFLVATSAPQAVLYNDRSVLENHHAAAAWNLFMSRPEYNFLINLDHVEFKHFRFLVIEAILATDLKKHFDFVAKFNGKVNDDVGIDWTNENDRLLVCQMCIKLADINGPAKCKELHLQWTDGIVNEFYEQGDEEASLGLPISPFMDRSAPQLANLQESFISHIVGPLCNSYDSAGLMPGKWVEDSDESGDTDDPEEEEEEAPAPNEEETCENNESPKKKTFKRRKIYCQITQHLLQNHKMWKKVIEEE
T2 sequence (Q07343 330-659 limits assumed): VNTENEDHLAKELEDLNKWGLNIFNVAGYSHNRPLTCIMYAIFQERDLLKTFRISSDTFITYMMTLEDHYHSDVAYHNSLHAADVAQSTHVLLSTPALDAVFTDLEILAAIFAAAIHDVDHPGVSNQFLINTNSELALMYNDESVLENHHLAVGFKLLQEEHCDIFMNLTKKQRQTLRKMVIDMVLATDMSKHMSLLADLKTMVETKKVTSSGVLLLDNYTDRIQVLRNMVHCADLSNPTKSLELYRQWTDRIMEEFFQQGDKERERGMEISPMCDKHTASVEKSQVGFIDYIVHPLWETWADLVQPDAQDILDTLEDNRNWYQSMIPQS

As for `CCc1ccc2c(C3=NN(CCCCOc4ccc(C5=NNC(=O)CC5C)cc4)C(=O)CC3C)ccc(OC)c2n1` (single isomer, unassigned) [Example 341, 6-(2-Ethyl-8-methoxyquinolin-5-yl)-5-methyl-2-[4-[4-(4-methyl-6-oxo-1,4,5,6-tetrahydropyridazin-3-yl)phenoxy]butyl]-4,5-dihydro-2H-pyridazin-3-one], the IC50 was 1 to 10 µmol/L in assay [1] and less than 0.1 µmol/L at PDE4Bcat.

As for `CCc1ccc2c(-c3ccc(=O)n(CCCCOc4ccc(C5=NNC(=O)CC5C)cc4F)n3)ccc(OC)c2n1` (single isomer, unassigned; (+)) [Example 328, (+)-6-(2-Ethyl-8-methoxyquinolin-5-yl)-2-[4-[2-fluoro-4-(4-methyl-6-oxo-1,4,5,6-tetrahydropyridazin-3-yl)phenoxy]butyl]-2H-pyridazin-3-one], the IC50 in assay [1] was less than 0.1 µmol/L; on PDE4Bcat, 0.1 to 1 µmol/L.

For `CCc1ccc2c(-c3ccc(=O)n(CCCCOc4ccc(C5=NNC(=O)CC5C)cc4F)n3)ccc(OC)c2n1` (single isomer, unassigned; (-)) [Example 329, (−)-6-(2-Ethyl-8-methoxyquinolin-5-yl)-2-[4-[2-fluoro-4-(4-methyl-6-oxo-1,4,5,6-tetrahydropyridazin-3-yl)phenoxy]butyl]-2H-pyridazin-3-one], the IC50 (in assay [1]; at PDE4Bcat) was less than 0.1 µmol/L throughout.

Turning to `COc1ccc(-c2ccc(=O)n(CCCCOc3ccc(C4=NNC(=O)CC4C)cc3)n2)c2ccc(C)nc12` (stereo not drawn) [Example 268, 6-(8-Methoxy-2-methylquinolin-5-yl)-2-[4-[4-(4-methyl-6-oxo-1,4,5,6-tetrahydropyridazin-3-yl)phenoxy]butyl]-2H-pyridazin-3-one], the IC50 (in assay [1]; at PDE4Bcat) was 0.1 to 1 µmol/L throughout.

`COc1ccc(-c2ccc(=O)n(CCCCOc3ccc(C4=NNC(=O)CC4C)cc3)n2)c2ccc(C(C)C)nc12` (stereo not drawn) [Example 270, 6-(8-Methoxy-2-isopropylquinolin-5-yl)-2-[4-[4-(4-methyl-6-oxo-1,4,5,6-tetrahydropyridazin-3-yl)phenoxy]butyl]-2H-pyridazin-3-one]: the IC50 in assay [1] is less than 0.1 µmol/L; on PDE4Bcat, 0.1 to 1 µmol/L.

Turning to `COc1ccc(-c2ccc(=O)n(CCCCOc3ccc(C4=NNC(=O)CC4)c(F)c3F)n2)c2cc(C(F)(F)F)oc12` [Example 274, 2-[4-[2,3-Difluoro-4-(6-oxo-1,4,5,6-tetrahydropyridazin-3-yl)phenoxy]butyl]-6-(7-methoxy-2-trifluoromethylbenzofuran-4-yl)-2H-pyridazin-3-one], the IC50 (in assay [1]; on PDE4Bcat) was less than 0.1 µmol/L each time.

`COc1ccc(-c2ccc(=O)n(CCCCOc3ccc(C4=NNC(=O)C4(C)C)c(F)c3F)n2)c2cc(C(F)(F)F)oc12` [Example 275, 2-[4-[2,3-Difluoro-4-(4,4-dimethyl-5-oxo-4,5-dihydro-1H-pyrazol-3-yl)phenoxy]butyl]-6-(7-methoxy-2-trifluoromethylbenzofuran-4-yl)-2H-pyridazin-3-one]: the IC50 is less than 0.1 µmol/L in assay [1] and 0.1 to 1 µmol/L at PDE4Bcat.

As for `COc1ccc(-c2ccc(=O)n(CCCCOc3ccc(C4=NNC(=O)CC4C)c(F)c3F)n2)c2cc(C(F)(F)F)oc12` (stereo not drawn) [Example 276, 2-[4-[2,3-Difluoro-4-(4-methyl-6-oxo-1,4,5,6-tetrahydropyridazin-3-yl)phenoxy]butyl]-6-(7-methoxy-2-trifluoromethylbenzofuran-4-yl)-2H-pyridazin-3-one], the figures for the IC50 (in assay [1]; at PDE4Bcat) were less than 0.1 µmol/L and 0.1 to 1 µmol/L, respectively.

For `CCc1ccc2c(-c3ccc(=O)n(CCCCOc4ccc(C5=NNC(=O)CC5C)cc4)n3)ccc(OC)c2n1` (stereo not drawn) [Example 280, 6-(2-ethyl-8-Methoxyquinolin-5-yl)-2-[4-[4-(4-methyl-6-oxo-1,4,5,6-tetrahydropyridazin-3-yl)phenoxy]butyl]-2H-pyridazin-3-one], the IC50 was less than 0.1 µmol/L in assay [1] and 0.1 to 1 µmol/L on PDE4Bcat.

`CCc1ccc2c(-c3ccc(=O)n(CCCCOc4ccc(C5=NNC(=O)CC5)cc4)n3)ccc(OC)c2n1` [Example 281, 6-(2-Ethyl-8-methoxyquinolin-5-yl)-2-[4-[4-(6-oxo-1,4,5,6-tetrahydropyridazin-3-yl)phenoxy]butyl]-2H-pyridazin-3-one]: the IC50 (in assay [1]; at PDE4Bcat) was 0.1 to 1 µmol/L in each case.

On to `CCc1ccc2c(-c3ccc(=O)n(CCCCOc4ccc(C5=NNC(=O)C5(C)C)cc4)n3)ccc(OC)c2n1` [Example 282, 6-(2-Ethyl-8-methoxyquinolin-5-yl)-2-[4-[4-(4,4-dimethyl-5-oxo-4,5-dihydro-1H-pyrazol-3-yl)phenoxy]butyl]-2H-pyridazin-3-one], for which the IC50 in assay [1] is no less than 10 µmol/L; at PDE4Bcat, 0.1 to 1 µmol/L.

Take `CCc1ccc2c(-c3ccc(=O)n(CCCCOc4ccc(C5=NNC(=O)CC5)cc4F)n3)ccc(OC)c2n1` [Example 284, 6-(2-Ethyl-8-methoxyquinolin-5-yl)-2-[4-[2-fluoro-4-(6-oxo-1,4,5,6-tetrahydropyridazin-3-yl)phenoxy]butyl]-2H-pyridazin-3-one]: the IC50 in assay [1] was less than 0.1 µmol/L; on PDE4Bcat, 0.1 to 1 µmol/L.

Turning to `CCc1ccc2c(-c3ccc(=O)n(CCCCOc4ccc(C5=NNC(=O)C5(C)C)cc4F)n3)ccc(OC)c2n1` [Example 285, 6-(2-Ethyl-8-methoxyquinolin-5-yl)-2-[4-[2-fluoro-4-(4,4-dimethyl-5-oxo-4,5-dihydro-1H-pyrazol-3-yl)phenoxy]butyl]-2H-pyridazin-3-one], the IC50 (in assay [1]; on PDE4Bcat) was 1 to 10 µmol/L each time.

For `CCc1ccc2c(-c3ccc(=O)n(CCCCOc4ccc(C5=NNC(=O)C5(C)C)cc4OC)n3)ccc(OC)c2n1` [Example 286, 6-(2-Ethyl-8-methoxyquinolin-5-yl)-2-[4-[2-methoxy-4-(4,4-dimethyl-5-oxo-4,5-dihydro-1H-pyrazol-3-yl)phenoxy]butyl]-2H-pyridazin-3-one], the IC50 was no less than 10 µmol/L in assay [1] and 1 to 10 µmol/L at PDE4Bcat.

On to `CCc1ccc2c(C3=NN(CCCCOc4ccc(C5=NNC(=O)C5(C)C)cc4F)C(=O)CC3C)ccc(OC)c2n1` (stereo not drawn) [Example 302, 6-(2-Ethyl-8-methoxyquinolin-5-yl)-5-methyl-2-[4-[2-fluoro-4-(4,4-dimethyl-5-oxo-4,5-dihydro-1H-pyrazol-3-yl)phenoxy]butyl]-4,5-dihydro-2H-pyridazin-3-one], for which the IC50 in assay [1] is 1 to 10 µmol/L; on PDE4Bcat, less than 0.1 µmol/L.

On to `COc1ccc(-c2ccc(=O)n(CCCCOc3ccc(C4=NNC(=O)C4(C)C)c(F)c3F)n2)c2nc(C(F)(F)F)nn12` [Example 306, 2-[4-[2,3-Difluoro-4-(4,4-dimethyl-5-oxo-4,5-dihydro-1H-pyrazol-3-yl)phenoxy]butyl]-6-(5-methoxy-2-trifluoromethyl-[1,2,4]triazolo[1,5-a]pyridin-8-yl)-2H-pyridazin-3-one], for which the IC50 (in assay [1]; at PDE4Bcat) was 1 to 10 µmol/L each time.

As to `COc1ccc(-c2ccc(=O)n(CCCCOc3ccc(C4=NNC(=O)CC4C)c(F)c3F)n2)c2sc(C(F)(F)F)nc12` (stereo not drawn) [Example 307, 2-[4-[2,3-Difluoro-4-(4-methyl-6-oxo-1,4,5,6-tetrahydropyridazin-3-yl)phenoxy]butyl]-6-(4-methoxy-2-trifluoromethylbenzothiazol-7-yl)-2H-pyridazin-3-one], the IC50 (in assay [1]; on PDE4Bcat) was less than 0.1 µmol/L each time.

As for `COc1ccc(-c2ccc(=O)n(CCCCOc3ccc(C4=NNC(=O)CC4)c(F)c3F)n2)c2sc(C(F)(F)F)nc12` [Example 308, 2-[4-[2,3-Difluoro-4-(6-oxo-1,4,5,6-tetrahydropyridazin-3-yl)phenoxy]butyl]-6-(4-methoxy-2-trifluoromethylbenzothiazol-7-yl)-2H-pyridazin-3-one], the IC50 (in assay [1]; on PDE4Bcat) was less than 0.1 µmol/L in each case.

As to `COc1ccc(-c2ccc(=O)n(CCCCOc3ccc(C4=NNC(=O)C4(C)C)c(F)c3F)n2)c2sc(C(F)(F)F)nc12` [Example 309, 2-[4-[2,3-Difluoro-4-(4,4-dimethyl-5-oxo-4,5-dihydro-1H-pyrazol-3-yl)phenoxy]butyl]-6-(4-methoxy-2-trifluoromethylbenzothiazol-7-yl)-2H-pyridazin-3-one], the IC50 (in assay [1]; on PDE4Bcat) was less than 0.1 µmol/L in each case.

Turning to `COc1ccc(C2=NN(CCCCOc3ccc(C4=NNC(=O)CC4C)cc3)C(=O)CC2C)c2cc(C(F)(F)F)oc12` (stereo not drawn) [Example 310], the results for the IC50 (in assay [1]; at PDE4Bcat) were 0.1 to 1 µmol/L and less than 0.1 µmol/L, respectively.

For `COc1ccc(C2=NN(CCCCOc3ccc(C4=NNC(=O)CC4C)cc3)C(=O)CC2C)c2cc(C(F)(F)F)sc12` (stereo not drawn) [Example 311], the IC50 in assay [1] was less than 0.1 µmol/L; on PDE4Bcat, 1 to 10 µmol/L.

In the case of `COc1ccc(C2=NN(CCCCOc3ccc(C4=NNC(=O)CC4C)cc3)C(=O)CC2C)c2sc(C(F)(F)F)nc12` (stereo not drawn) [Example 313, 6-(4-Methoxy-2-trifluoromethylbenzothiazol-7-yl)-5-methyl-2-[4-[4-(4-methyl-6-oxo-1,4,5,6-tetrahydropyridazin-3-yl)phenoxy]butyl]-4,5-dihydro-2H-pyridazin-3-one], the IC50 in assay [1] is 0.1 to 1 µmol/L; at PDE4Bcat, less than 0.1 µmol/L.

Turning to `COc1ccc(-c2ccc(=O)n(CCCCOc3ccc(C4=NNC(=O)CC4C)cc3)n2)c2ccc(C(F)(F)F)nc12` (stereo not drawn) [Example 321, 6-(8-Methoxy-2-trifluoromethylquinolin-5-yl)-2-[4-[4-(4-methyl-6-oxo-1,4,5,6-tetrahydropyridazin-3-yl)phenoxy]butyl]-2H-pyridazin-3-one], the IC50 (in assay [1]; on PDE4Bcat) was 0.1 to 1 µmol/L each time.

Take `CCc1ccc2c(-c3ccc(=O)n(CCOc4ccc(C5=NNC(=O)CC5C)c(F)c4F)n3)ccc(OC)c2n1` (stereo not drawn) [Example 324, 6-(2-Ethyl-8-methoxyquinolin-5-yl)-2-[2-[2,3-difluoro-4-(4-methyl-6-oxo-1,4,5,6-tetrahydropyridazin-3-yl)phenoxy]ethyl]-2H-pyridazin-3-one]: the values for the IC50 (in assay [1]; on PDE4Bcat) were less than 0.1 µmol/L and 0.1 to 1 µmol/L, respectively.
